{"source": "paper PMC12583704", "about": "(Signal Transduction and Targeted Therapy, 2025)", "test": "Phase 1 study NCT03594422: adverse events graded by NCI CTCAE v4.03", "format": "in vivo, human", "experimental": "Part 1 was a dose-escalation study to determine the recommended phase 2 dose (RP2D) in solid tumors. […] The initial design was a 3 + 3 dose escalation from 20 mg, but the protocol was amended to randomly enroll and assign patients to starting doses of 30, 40, and 50 mg on the basis of safety data acquired in the CML trial.[20] […] An interactive web response system was used for randomization. Part 2 was a nonrandomized study focusing on patients with SDH-deficient GISTs. […] On the basis of preliminary data from adult patients, adolescent patients with advanced wild-type GISTs were also included in Part 2. The dosage for adolescents was adjusted according to their body weights.\nAEs were evaluated at each follow-up visit: on Days 1, 8, 15, and 22 during Cycles 1 and 2; and on Days 1 and 15 in Cycle 3 and all subsequent cycles, up to 30 days after the final dose. All AEs were graded according to the National Cancer Institute Common Terminology Criteria for Adverse Events v4.03. Clinical laboratory investigations for routine blood examinations and serum chemistry parameters were performed during every cycle (on Day 1), during Cycles 1 and 2 (on Days 8, 15, and 22), and 30 days after the last dose of treatment. Urinalysis, coagulation, cardiac troponin I/T, lipase, amylase, and electrocardiographic evaluations were conducted at baseline; during Cycles 1 and 2 (on Days 1 and 15); during Cycles 3, 5, 7, and 9; every three cycles after Cycle 9 (on Day 1); and 14 days after the last dose of treatment. All patients underwent tumor imaging for response assessment via computed tomography or magnetic resonance imaging at screening and every two cycles (8 weeks) until progression or discontinuation. Target and nontarget lesions were assessed per the Response Evaluation Criteria in Solid Tumors version 1.1 (RECIST v1.1)."}
{"smiles": "Cc1ccc(C(=O)Nc2ccc(CN3CCN(C)CC3)c(C(F)(F)F)c2)cc1C#Cc1cnc2[nH]ncc2c1", "note": "[Olverembatinib, 3-[(1H-pyrazolo[3,4-b]pyridin-5-yl)ethynyl]-4-methyl-N-{4-[(4-methylpiperazin-1-yl)methyl]-3-(trifluoromethyl)phenyl]benzamide]", "values": [{"measurement": "TEAE: Constipation", "setting": "40 mg (n = 32), Grade 3-5", "result": "0 n (%)"}, {"measurement": "TEAE: Fatigue", "setting": "40 mg (n = 32), Grade 3-5", "result": "1 (3.1) n (%)"}, {"measurement": "TEAE: Hyperuricemia", "setting": "40 mg (n = 32), Grade 3-5", "result": "0 n (%)"}, {"measurement": "TEAE: Hypoalbuminemia", "setting": "40 mg (n = 32), Grade 3-5", "result": "0 n (%)"}, {"measurement": "TEAE: Leukocyte count increased", "setting": "40 mg (n = 32), Grade 3-5", "result": "0 n (%)"}, {"measurement": "TEAE: Melanocytic nevus", "setting": "40 mg (n = 32), Grade 3-5", "result": "0 n (%)"}, {"measurement": "TEAE: Neutrophil count increased", "setting": "40 mg (n = 32), Grade 3-5", "result": "0 n (%)"}, {"measurement": "TEAE: Pyrexia", "setting": "40 mg (n = 32), Grade 3-5", "result": "0 n (%)"}, {"measurement": "TEAEs", "setting": "40 mg (n = 32), Grade 3-5", "result": "12 (37.5) n (%)"}, {"measurement": "TRAE: ALT increased", "setting": "40 mg (n = 32), Grade 3-5", "result": "0 n (%)"}, {"measurement": "TRAE: AST increased", "setting": "40 mg (n = 32), Grade 3-5", "result": "0 n (%)"}, {"measurement": "TRAE: Anemia", "setting": "40 mg (n = 32), Grade 3-5", "result": "0 n (%)"}, {"measurement": "TRAE: Blood creatinine increased", "setting": "40 mg (n = 32), Grade 3-5", "result": "0 n (%)"}, {"measurement": "TRAE: Constipation", "setting": "40 mg (n = 32), Grade 3-5", "result": "0 n (%)"}, {"measurement": "TRAE: Fatigue", "setting": "40 mg (n = 32), Grade 3-5", "result": "1 (3.1) n (%)"}, {"measurement": "TRAE: Hypoalbuminemia", "setting": "40 mg (n = 32), Grade 3-5", "result": "0 n (%)"}, {"measurement": "TRAE: Leukocyte count increased", "setting": "40 mg (n = 32), Grade 3-5", "result": "0 n (%)"}, {"measurement": "TRAE: Melanocytic nevus", "setting": "40 mg (n = 32), Grade 3-5", "result": "0 n (%)"}, {"measurement": "TRAE: Neutrophil count increased", "setting": "40 mg (n = 32), Grade 3-5", "result": "0 n (%)"}, {"measurement": "TRAE: Platelet count increased", "setting": "40 mg (n = 32), Grade 3-5", "result": "0 n (%)"}, {"measurement": "TRAE: Pyrexia", "setting": "40 mg (n = 32), Grade 3-5", "result": "0 n (%)"}, {"measurement": "TEAE: Abdominal pain", "setting": "50 mg (n = 16), Any grade", "result": "3 (18.8) n (%)"}, {"measurement": "TEAE: Alanine aminotransferase increased", "setting": "50 mg (n = 16), Any grade", "result": "6 (37.5) n (%)"}, {"measurement": "TEAE: Anemia", "setting": "50 mg (n = 16), Any grade", "result": "8 (50.0) n (%)"}, {"measurement": "TEAE: Aspartate aminotransferase increased", "setting": "50 mg (n = 16), Any grade", "result": "10 (62.5) n (%)"}, {"measurement": "TEAE: C-reactive protein increased", "setting": "50 mg (n = 16), Any grade", "result": "4 (25.0) n (%)"}, {"measurement": "TEAE: Constipation", "setting": "50 mg (n = 16), Any grade", "result": "7 (43.8) n (%)"}, {"measurement": "TEAE: Fatigue", "setting": "50 mg (n = 16), Any grade", "result": "5 (31.3) n (%)"}, {"measurement": "TEAE: Hyperuricemia", "setting": "50 mg (n = 16), Any grade", "result": "5 (31.3) n (%)"}, {"measurement": "TEAE: Hypoalbuminemia", "setting": "50 mg (n = 16), Any grade", "result": "5 (31.3) n (%)"}, {"measurement": "TEAE: Leukocyte count increased", "setting": "50 mg (n = 16), Any grade", "result": "8 (50.0) n (%)"}, {"measurement": "TEAE: Melanocytic nevus", "setting": "50 mg (n = 16), Any grade", "result": "4 (25.0) n (%)"}, {"measurement": "TEAE: Neutrophil count increased", "setting": "50 mg (n = 16), Any grade", "result": "6 (37.5) n (%)"}, {"measurement": "TEAE: Pyrexia", "setting": "50 mg (n = 16), Any grade", "result": "6 (37.5) n (%)"}, {"measurement": "TEAEs", "setting": "50 mg (n = 16), Any grade", "result": "16 (100.0) n (%)"}, {"measurement": "TRAE: ALT increased", "setting": "50 mg (n = 16), Any grade", "result": "5 (31.3) n (%)"}, {"measurement": "TRAE: AST increased", "setting": "50 mg (n = 16), Any grade", "result": "6 (37.5) n (%)"}, {"measurement": "TRAE: Anemia", "setting": "50 mg (n = 16), Any grade", "result": "4 (25.0) n (%)"}, {"measurement": "TRAE: Blood creatinine increased", "setting": "50 mg (n = 16), Any grade", "result": "1 (6.3) n (%)"}, {"measurement": "TRAE: Constipation", "setting": "50 mg (n = 16), Any grade", "result": "5 (31.3) n (%)"}, {"measurement": "TRAE: Fatigue", "setting": "50 mg (n = 16), Any grade", "result": "5 (31.3) n (%)"}, {"measurement": "TRAE: Hypoalbuminemia", "setting": "50 mg (n = 16), Any grade", "result": "3 (18.8) n (%)"}, {"measurement": "TRAE: Leukocyte count increased", "setting": "50 mg (n = 16), Any grade", "result": "8 (50.0) n (%)"}, {"measurement": "TRAE: Melanocytic nevus", "setting": "50 mg (n = 16), Any grade", "result": "4 (25.0) n (%)"}, {"measurement": "TRAE: Neutrophil count increased", "setting": "50 mg (n = 16), Any grade", "result": "6 (37.5) n (%)"}, {"measurement": "TRAE: Platelet count increased", "setting": "50 mg (n = 16), Any grade", "result": "2 (12.5) n (%)"}, {"measurement": "TRAE: Pyrexia", "setting": "50 mg (n = 16), Any grade", "result": "4 (25.0) n (%)"}, {"measurement": "TEAE: Abdominal pain", "setting": "50 mg (n = 16), Grade 3-5", "result": "0 n (%)"}, {"measurement": "TEAE: Alanine aminotransferase increased", "setting": "50 mg (n = 16), Grade 3-5", "result": "2 (12.5) n (%)"}, {"measurement": "TEAE: Anemia", "setting": "50 mg (n = 16), Grade 3-5", "result": "1 (6.3) n (%)"}, {"measurement": "TEAE: Aspartate aminotransferase increased", "setting": "50 mg (n = 16), Grade 3-5", "result": "2 (12.5) n (%)"}, {"measurement": "TEAE: C-reactive protein increased", "setting": "50 mg (n = 16), Grade 3-5", "result": "0 n (%)"}, {"measurement": "TEAE: Constipation", "setting": "50 mg (n = 16), Grade 3-5", "result": "0 n (%)"}, {"measurement": "TEAE: Fatigue", "setting": "50 mg (n = 16), Grade 3-5", "result": "0 n (%)"}, {"measurement": "TEAE: Hyperuricemia", "setting": "50 mg (n = 16), Grade 3-5", "result": "0 n (%)"}, {"measurement": "TEAE: Hypoalbuminemia", "setting": "50 mg (n = 16), Grade 3-5", "result": "0 n (%)"}, {"measurement": "TEAE: Leukocyte count increased", "setting": "50 mg (n = 16), Grade 3-5", "result": "0 n (%)"}, {"measurement": "TEAE: Melanocytic nevus", "setting": "50 mg (n = 16), Grade 3-5", "result": "0 n (%)"}, {"measurement": "TEAE: Neutrophil count increased", "setting": "50 mg (n = 16), Grade 3-5", "result": "0 n (%)"}, {"measurement": "TEAE: Pyrexia", "setting": "50 mg (n = 16), Grade 3-5", "result": "0 n (%)"}, {"measurement": "TEAEs", "setting": "50 mg (n = 16), Grade 3-5", "result": "9 (56.3) n (%)"}, {"measurement": "TRAE: ALT increased", "setting": "50 mg (n = 16), Grade 3-5", "result": "1 (6.3) n (%)"}, {"measurement": "TRAE: AST increased", "setting": "50 mg (n = 16), Grade 3-5", "result": "1 (6.3) n (%)"}, {"measurement": "TRAE: Anemia", "setting": "50 mg (n = 16), Grade 3-5", "result": "0 n (%)"}, {"measurement": "TRAE: Blood creatinine increased", "setting": "50 mg (n = 16), Grade 3-5", "result": "0 n (%)"}, {"measurement": "TRAE: Constipation", "setting": "50 mg (n = 16), Grade 3-5", "result": "0 n (%)"}, {"measurement": "TRAE: Fatigue", "setting": "50 mg (n = 16), Grade 3-5", "result": "0 n (%)"}]}
